Laboratory results reported in article PMC9917201, “Enhanced Antibacterial Activity of Substituted Derivatives of NCR169C Peptide” (International Journal of Molecular Sciences, 2023).
Values after ≈ are worked out from the molar mass of the structure shown. Residues, ends and D or L forms follow the SMILES beside them.

Legend:
[1] = tested on: Candida species; settings: cited from earlier work
Source text: NCR169, a cationic peptide (net charge at pH7 is 1.91) consisting of 38 amino acids with four cysteine residues, is crucial for bacteroid differentiation, and its absence results in no nitrogen fixation but premature nodule senescence. Two NMR structures of NCR169 produced in Escherichia coli resulting from different disulfide bond patterns have been determined by utilizing the ^1H-^15N heteronuclear single-quantum coherence (HSQC) NMR technique.

[2] = tested on: S. aureus (ATCC 25923); assay type: cell-based, Staphylococcus aureus; settings: ATCC 25923, 3 h, pH 7.4
Source text: (§1) The bacterial strains for the antimicrobial assay were obtained from the ATCC (American Type Culture Collection, Manassas, VA, USA) and NCTC (National Collection of Type Cultures, Salisbury, UK). Gram-negative strains were Pseudomonas aeruginosa (ATCC 27853), Escherichia coli (ATCC 8739, ATCC 35218, and ATCC 25922), Salmonella enterica (ATCC 13076), Klebsiella pneumoniae (NCTC 13440), Acinetobacter baumannii (ATCC 17978) and the Gram-positive strains were Enterococcus faecalis (ATCC 29212), Listeria monocytogenes (ATCC 19111), and Staphylococcus aureus (HNCMO112011 and ATCC 25923).
(§2) Determination of antibacterial activity for the peptides was carried out by utilizing a minimum bactericidal concentration (MBC) bioassay. Synthesized peptides were dissolved in sterile water and used from 25 to 0.125 μM in 2-fold dilution series and incubated with ~10^7 log phase bacteria in Potassium-Phosphate Buffer (PPB, pH: 7.4) for three hours as described earlier. After that, 5 μl of each sample was placed on LB agar and the growth of bacteria was monitored after overnight incubation at 37 °C. The lowest concentration of the antimicrobial agents that completely eliminated viable bacteria was considered the minimal bactericidal concentration (MBC).

[3] = tested on: Pseudomonas aeruginosa (ATCC 27853); assay type: cell-based; settings: ATCC 27853, 3 h, pH 7.4
Outline: (§3)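 Peptides in sterile water, 2-fold series 25 to […], incubated 3 h with ~10^7 log-phase bacteria in potassium-phosphate buffer pH 7.4. Samples spotted on LB agar, grown overnight at 37 °C; MBC = lowest concentration leaving no viable bacteria.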

[4] = tested on: Salmonella enterica (ATCC 13076); assay type: cell-based; settings: ATCC 13076, 3 h, pH 7.4
Outline: as §3

[5] = tested on: tested bacteria (ESKAPE pathogens, Listeria monocytogenes, Salmonella enterica); assay type: cell-based; settings: 3 h, pH 7.4
Outline: as §3

[6] = tested on: Listeria monocytogenes (ATCC 19111); assay type: cell-based; settings: ATCC 19111, 3 h, pH 7.4
Outline: as §3

[7] = tested on: Klebsiella pneumoniae (NCTC 13440); assay type: cell-based; settings: NCTC 13440, 3 h, pH 7.4
Outline: as §3

[8] = tested on: Enterococcus faecalis (ATCC 29212); assay type: cell-based; settings: Enterococcus faecalis ATCC 29212; ~10^7 log phase bacteria, 3 h in potassium-phosphate buffer (PPB) pH 7.4; peptide 25 to 0.125 μM 2-fold series; 5 μl on LB agar, overnight 37 °C
Outline: as §3

[9] = tested on: Staphylococcus aureus (HNCMO112011); assay type: cell-based; settings: HNCMO112011, 3 h, pH 7.4
Outline: as §3

[10] = tested on: Escherichia coli (ATCC 8739); assay type: cell-based; settings: Escherichia coli ATCC 8739; ~10^7 log phase bacteria, 3 h in PPB pH 7.4; peptide 25 to 0.125 μM 2-fold series; plated on LB agar, overnight 37 °C
Outline: as §3

[11] = tested on: Acinetobacter baumannii (ATCC 17978); assay type: cell-based; settings: ATCC 17978, 3 h, pH 7.4
Outline: as §3

[12] = tested on: E. coli (ATCC 25922); assay type: cell-based, Escherichia coli; settings: ATCC 25922, 3 h, pH 7.4
Source text: as §1, §2

[13] = tested on: E. coli (ATCC 35218); assay type: cell-based, Escherichia coli; settings: ATCC 35218, 3 h, pH 7.4
Source text: as §1, §2

In the case of CC[C@H](C)[C@H](NC(=O)[C@H](CCCCN)NC(=O)[C@H](Cc1ccccc1)NC(=O)[C@H](CC(C)C)NC(=O)[C@@H]1CCCN1C(=O)[C@H](CCCCN)NC(=O)[C@H](CCCCN)NC(=O)[C@H](CO)NC(=O)[C@@H](N)CCCCN)C(=O)N[C@@H](Cc1c[nH]c2ccccc12)C(=O)N[C@@H](CCCCN)C(=O)N[C@@H](CS)C(=O)N[C@H](C(=O)N[C@@H](CCC(=O)O)C(=O)N[C@@H](CC(N)=O)C(=O)N[C@H](C(=O)N[C@@H](CS)C(=O)N[C@H](C(=O)N[C@@H](CC(C)C)C(=O)N[C@@H](Cc1c[nH]c2ccccc12)C(=O)N[C@@H](Cc1ccc(O)cc1)C(=O)N[C@@H](CCCCN)C(N)=O)C(C)C)C(C)C)C(C)C [NCR169C17–38] (H-KSKKPLFKIWKCVENVCVLWYK-NH2; N-terminus assumed), the “antifungal activity against different Candida species” value [1] is given as “possess antifungal activity”, the “MBC S.a. ATTC 25923” value [2] is given as 3.1 µM (≈ 8.49 µg/mL) and the “Minimal bactericidal concentration (MBC) P. a.” value [3] is given as 3.1 µM (≈ 8.49 µg/mL). For the same compound, the “Minimal bactericidal concentration (MBC) S. e.” value [4] was 3.1 µM (≈ 8.49 µg/mL), the “MBC against most or all of the tested bacteria” value [5] was 3.1 µM and the “Minimal bactericidal concentration (MBC) L. m.” value [6] was 3.1 µM (≈ 8.49 µg/mL). For the same compound, the “Minimal bactericidal concentration (MBC) K. p.” value [7] was 3.1 µM (≈ 8.49 µg/mL), the “Minimal bactericidal concentration (MBC) E. f.” value [8] was 6.3 µM (≈ 17.3 µg/mL) and the “Minimal bactericidal concentration (MBC) S. a.” value [9] was 3.1 µM (≈ 8.49 µg/mL). For the same compound, the “Minimal bactericidal concentration (MBC) E. c.” value [10] was 1.6 µM (≈ 4.38 µg/mL), the “Minimal bactericidal concentration (MBC) A. b.” value [11] was 3.1 µM (≈ 8.49 µg/mL) and the “MBC E.c. ATTC 25922” value [12] was 1.6 µM (≈ 4.38 µg/mL). For the same compound, the “MBC E.c. ATTC 35218” value [13] was 1.6 µM (≈ 4.38 µg/mL).
